Experimental data taken from article PMC6193536 (Bioorganic & medicinal chemistry letters, 2018).
Read-outs that look alike come from different tables or passages of the source.

What was measured:
Plasmodium falciparum [1] = test: hypoxanthine incorporation assay; format: cell-based
PfPKG [2] = molecular target: T1, PfPKG (Plasmodium falciparum, UniProt Q8I719); conditions: data unpublished
Plasmodium falciparum [3] = conditions: cited from earlier work
PfPKG [4] = molecular target: T1, PfPKG; conditions: cited from earlier work

T1 sequence (Q8I719 whole entry): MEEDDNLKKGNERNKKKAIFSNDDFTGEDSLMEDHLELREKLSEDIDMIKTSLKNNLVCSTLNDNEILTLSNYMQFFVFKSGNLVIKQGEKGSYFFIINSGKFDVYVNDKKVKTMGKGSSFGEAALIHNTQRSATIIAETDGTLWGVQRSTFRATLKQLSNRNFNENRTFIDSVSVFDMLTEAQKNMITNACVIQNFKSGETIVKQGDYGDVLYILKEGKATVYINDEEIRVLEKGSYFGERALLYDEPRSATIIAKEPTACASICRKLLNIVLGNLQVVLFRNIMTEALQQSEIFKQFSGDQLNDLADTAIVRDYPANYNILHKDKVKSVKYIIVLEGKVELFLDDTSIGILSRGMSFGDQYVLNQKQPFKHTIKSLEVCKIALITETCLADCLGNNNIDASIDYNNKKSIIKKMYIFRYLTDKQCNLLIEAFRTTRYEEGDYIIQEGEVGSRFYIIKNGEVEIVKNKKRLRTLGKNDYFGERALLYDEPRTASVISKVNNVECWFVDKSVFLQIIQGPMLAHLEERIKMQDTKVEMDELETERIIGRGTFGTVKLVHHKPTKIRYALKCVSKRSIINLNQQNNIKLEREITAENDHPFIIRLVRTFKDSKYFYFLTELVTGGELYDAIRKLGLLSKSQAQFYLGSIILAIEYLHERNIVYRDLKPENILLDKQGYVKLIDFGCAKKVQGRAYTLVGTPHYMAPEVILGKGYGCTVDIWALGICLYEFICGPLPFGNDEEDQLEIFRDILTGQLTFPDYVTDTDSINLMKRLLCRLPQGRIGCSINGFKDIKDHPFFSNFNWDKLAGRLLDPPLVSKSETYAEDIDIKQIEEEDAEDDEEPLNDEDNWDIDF

CN1CCC(c2cc(-c3ccncc3)c(-c3ccc(F)cc3)[nH]2)CC1 [compound 1]
potency in HXI cell viability assay (Plasmodium falciparum [1]; data unpublished): moderate potency
potency in biochemical assay against PfPKG (PfPKG [2]): low nanomolar potencies
kinase selectivity (other human kinases) (panel of human kinases): poor kinase selectivity

CN1CCC(c2nc(-c3ccc(F)c(NS(C)(=O)=O)c3)c(-c3ccnc(NCC4CC4)n3)s2)CC1 [compound 23]
improvement in cellular potency over compound 1 (Plasmodium falciparum [1]; versus compound 1): 4 fold

CN(C)Cc1ccn2c(-c3ccnc(N)n3)c(-c3ccc(F)cc3)nc2c1 [compound 2]
potency in HXI cell viability assay (Plasmodium falciparum [3]): moderate potency
potency in biochemical assay against PfPKG (PfPKG [4]): low nanomolar potencies
